{"source": "patent US10011813B2", "about": "“Methane oxidation methods and compositions” (California Institute of Technology, priority 2015, dated 2018)", "key": {"[1]": {"system": "methane seep sediment (ANME archaea)", "assay": "AOM rate measurement via 13C-methane (newly formed DIC) in methane seep sediment incubations", "type": "cell-based, ANME-2a and ANME-2c", "details": "22.5° C."}, "[2]": {"system": "methane seep sediment (ANME archaea)", "assay": "Quantification of reduced AQDS by iodometry in AOM incubations", "type": "cell-based, ANME-2a and ANME-2c", "details": "after 21-day incubation", "procedure": "(§1) Quantification of reduced AQDS by iodometry. Reduced AQDS (2,6-AQH2DS) was quantified via iodimetric titration in the anaerobic chamber. A standard solution of ca. 20 mM KI3 was prepared as follows: iodine (254 mg, 2.0 mmol) and potassium iodide (1.66 g, 10 mmol) were dissolved in 100 mL DI water. After 2 days, the clear, dark solution was N2-sparged and brought into the anaerobic chamber. The exact concentration of the KI3 standard solution was quantified to be 19.5 mM via duplicate titration with sodium thiosulfate (exactly 101.5 mM, N2-sparged). Procedure for the quantification of reduced AQDS in the incubations: 1000 μL anaerobic assay solution centrifuged in the anaerobic chamber+200 μL anaerobic HEPES (1.0 M, pH=7.5)+KI3 standard solution as needed until color minimum, added in steps of 100 μL first, then in steps of 10 μL when closer to the equivalence point."}, "methane seep sediment": {"system": "methane seep sediment", "assay": "Control experiments without methane (sediment with AQDS under nitrogen)", "type": "cell-based", "details": "AQDS 10 mM, after 3 weeks", "procedure": "as §1\nControl experiments without methane. […] To confirm that the methanotrophic microorganisms in the sediment had not been killed during the nitrogen+AQDS incubation, methane was later injected into these incubation bottles after 3 weeks."}, "[3]": {"assay": "Quantification of AQDS solubility in the incubation medium", "type": "physicochemical", "procedure": "Quantification of AQDS solubility in the incubation medium. Different regioisomers of AQDS (1,5-AQDS, 2,6-AQDS and 2,7-AQDS) were separately added to the modified artificial seawater described above, to a targeted final concentration of 25 mM. The suspensions were ultra-sonicated at room temperature to dissolve as much of the AQDS as possible. The tubes were kept at 4° C. or at 22.5° C. overnight. The tubes were centrifuged at 4° C. or 22.5° C. (16000 rcf, 30 min). The supernatant (300 μL) was mixed with 300 μL acetate (10.0 mM) as the internal standard and 100 μL deuterated water (99.9% D, Cambridge Isotope Laboratories) was added. The concentration of AQDS was obtained from integration of the ^1H-NMR spectra by comparison relative to the acetate standard."}, "[4]": {"system": "methane seep sediment (ANME archaea)", "assay": "AOM rate measurement via 13C-methane (newly formed DIC) in methane seep sediment incubations", "type": "cell-based, ANME-2a and ANME-2c", "details": "for Rate relative to AOM with sulfate: 10 mM; for DIC formed: after 21-day incubation", "text": "General description of methane oxidation measurements via ^13C-methane. Methane oxidation was quantified by determining the production of inorganic carbon (“CO2”). Accurate quantification of the concentration of inorganic carbon formed from methane oxidation is challenging due to 4 main reasons:\nA defined amount of added DIC in artificial, buffered seawater was used with a low calcium concentration to prevent carbonate precipitation (see medium composition). As ^13CH4 was the only ^13C-enriched carbon source added, the newly formed ^13C-DIC must be derived from methane. For low methane oxidation rates (less than ca. 5% relative to sulfate as the oxidant or electron acceptor), however, enzyme-catalyzed isotope exchange between methane and DIC, needs to be taken into account, because it contributes to ^13C enrichment of the DIC without net methane oxidation, resulting in an overestimation of net methane oxidation. […] Details of both methods, the ^13CH4 experiments and the standard addition are described herein.\nIncubation conditions for AOM rate measurement. Each incubation vial was set up with 1.0 cm^3 wet sediment (wet sediment=volume of sediment after allowing the sediment slurry settle for 48 h) in total slurry volume of […] as follows: Sterile serum vials were closed with butyl rubber stoppers (volume=12.9 ml after closing) and flushed with methane. 1.0 mL ^13CH4 (99% ^13C, Cambridge Isotope Laboratories, containing 0.05 vol % ^13CO2 as an impurity) was introduced anaerobically. 2.0 mL of artificial, anaerobic seawater containing 2.5× the target concentration of the corresponding electron acceptor was injected into the serum vial cooled on ice. For AQDS and 1,5-AQDS, this was a suspension corresponding to 25 mM (see TABLE 3).\nThe 1 L pyrex bottle with the sediment in the sulfate-free medium (1 part wet sediment in 3 parts of slurry volume) was vigorously shaken each time and 3.0 mL of slurry immediately removed and injected into the individual serum bottles. Each stoppered serum vial was supplemented with unlabeled methane (0.250 MPa overpressure: pressure gauge SSI Technologies, Inc., Media Gauge™) shaken and stored inverted at 4° C. (final headspace: 0.35 MPa methane, with ca. 4% ^13CH4). The exact fractional abundance of ^13C in the methane was quantified via ^1H-NMR spectroscopy for individual incubations.\nAOM rate measurements (quantification of newly formed DIC based on ^13CH4). For ^13C-DIC analysis, 0.25 mL of the medium above the settled sediment in the microcosm was sampled with a disposable needle and syringe at each time point (same intervals for all experiments) and centrifuged (16000 rcf, 5 min). The supernatant was transferred into 0.6 mL eppendorf tubes, flash frozen in N2 (l), and stored at −20° C. until measurement. 150 μL of the thawed supernatant was then added to He-flushed vials containing 100 μL H3PO4 (85%). The resulting CO2 was analyzed for the isotopic enrichment (^13F(tn)) on a GC-IR-MS GasBench II (Thermo Scientific). The amount of DIC newly formed (Δ[DIC](tn), see FIG. 6B) was calculated from the measured ^13F (fractional abundance of ^13C), neglecting isotope effects on AOM according to Equation (1): Δ[DIC](tn)=[DIC](t0)*(^13F(tn)−^13F(t0))/(^13F(CH4)−^13F(tn)) (EQ. 1)"}}, "note": "Several values for one entry are separate records, joined by “and”; a condition that tells them apart may be missing. Equal entries are not always repeated."}
{"smiles": "O=C1c2ccc(S(=O)(=O)O)cc2C(=O)c2ccc(S(=O)(=O)O)cc21", "note": "[AQDS, 9,10-anthraquinone-2,6-disulfonate]", "values": [{"measurement": "AOM rates compared with sulfate", "setting": "[1]", "result": "exceeded"}, {"measurement": "AQH2DS (final concentration of reduced AQDS)", "setting": "[2]; AQDS 10 mM + MoO4^2− 25 mM", "result": "9.2 mM and 9.8 mM"}, {"measurement": "AQH2DS (final concentration of reduced AQDS)", "setting": "[2]; AQDS 10 mM", "result": "8.6 mM and 9.6 mM"}, {"measurement": "reduced AQDS generated without methane", "setting": "methane seep sediment", "result": "less than 1 mM"}, {"measurement": "Solubility in the incubation medium", "setting": "[3]; 4° C.", "result": 900, "unit": "µM"}, {"measurement": "Solubility in the incubation medium", "setting": "[3]; 22.5° C.", "result": 1900, "unit": "µM"}, {"measurement": "Rate relative to AOM with sulfate", "setting": "[4]; no MoO4^2−", "result": 74, "unit": "%"}, {"measurement": "Rate relative to AOM with sulfate", "setting": "[4]; with 25 mM MoO4^2−", "result": 83, "unit": "%"}, {"measurement": "DIC formed from 13C-methane per vial", "setting": "[4]; 50 mmol AQDS (10 mM), no sulfate, 21-day incubation at 4° C.", "result": "approximately 12.5 mmol"}, {"measurement": "DIC formed", "setting": "[4]; AQDS 10 mM + MoO4^2− 25 mM", "result": "2.59 mM and 2.82 mM"}, {"measurement": "DIC formed", "setting": "[4]; AQDS 10 mM, 4° C.", "result": "2.39 mM and 2.64 mM"}, {"measurement": "initial rates of AOM compared with sulfate", "setting": "[4]; first 6 days, 4° C.", "result": "equivalent"}]}
